From patent US20110143948A1, “MOLECULAR SIGNATURES AND BIOMARKERS ASSOCIATED WITH MELANOMA AND METHODS OF USE THEREOF” (priority 2008, published 2011)

System: ncRNAs (SEQ ID NO 28-89)
Experiment: ncRNA arrays of melanocytes, keratinocytes, normal skin, melanoma cell lines and patient samples
Design: species or system human
Details: for ncRNA array expression, patient 2: melanoma patient 2 sample compared to normal skin; for ncRNA array expression, patient 3: melanoma patient 3 sample compared to normal skin; for ncRNA array expression, patient 4: melanoma patient 4 sample compared to normal skin; for ncRNA array expression, patient 5: melanoma patient 5 sample compared to normal skin; for ncRNA array expression, patient 6: melanoma patient 6 sample compared to normal skin; for ncRNA array expression, patient 7: melanoma patient 7 sample compared to normal skin; for ncRNA array expression, patient 8: melanoma patient 8 sample compared to normal skin; for ncRNA array expression, patient 9: melanoma patient 9 sample compared to normal skin; for ncRNA array expression, patient 10: melanoma patient 10 sample compared to normal skin; for ncRNA array expression, patient 19: melanoma patient 19 sample compared to normal skin; for ncRNA array expression, patient 20: melanoma patient 20 sample compared to normal skin; for ncRNA array expression, patient 21: melanoma patient 21 sample compared to normal skin; for ncRNA array expression, patient 22: melanoma patient 22 sample compared to normal skin; for ncRNA array expression, patient 23: melanoma patient 23 sample compared to normal skin; for ncRNA array expression, patient 24: melanoma patient 24 sample compared to normal skin; for ncRNA array expression, patient 25: melanoma patient 25 sample compared to normal skin; for ncRNA array expression, patient 26: melanoma patient 26 sample compared to normal skin; for ncRNA array expression, patient 27: melanoma patient 27 sample compared to normal skin; for ncRNA array expression, patient 28: melanoma patient 28 sample compared to normal skin; for ncRNA array expression, patient 29: melanoma patient 29 sample compared to normal skin; for ncRNA array expression, patient 30: melanoma patient 30 sample compared to normal skin
Protocol: An ncRNA array platform that contains over 10,000 putative (>200 nt) ncRNAs including most of the known ncRNAs in mouse and human was conducted to evaluate ncRNAs within melanoma. Lack of coding potential was estimated by an algorithm that scores various characteristics of protein-coding genes, including open reading frame length, synonymous/non-synonymous base substitution rates and similarity to known proteins. These arrays provide the first generation of tools designed to analyze the dynamic expression of a large subset of ncRNAs in human and mouse and to identify candidate genes for more detailed functional analysis. In addition to the ncRNA content, probes targeting mRNA content from RefSeq are also included, allowing discovery of coordinated expression with associated protein-coding genes. The result of these assays is a list of ncRNA genes (i.e. SEQ ID NO 28-89) and maps of their sequence boundaries. We have profiled total RNA isolated from melanocytes, keratinocytes, normal human skin, melanoma cell lines and melanoma patient samples to identify differentially expressed ncRNAs in cell lines and tissues. ncRNAs expression in all tested samples were compared to either melanocytes or normal skin. We have identified a group of ncRNAs that are specific for (a) melanocytes (b) Keratinocytes (c) Melanoma cell lines (d) Melanoma patients. […] Probe DNA sequences for this array include: AF086032 (SEQ ID NO 107) […] BC071821 (SEQ ID NO 108) […] C AK130193 (SEQ ID NO 109) […] AL109719 (SEQ ID NO 110) […] AF085888 (SEQ ID NO 111) […] T BC033879 (SEQ ID NO 112) […] AA AK024556 (SEQ ID NO 113) […] Probe nomenclature is standard genebank IDs given by NCBI and other organizations.
Keratinocytes specific signatures were subtracted and resultant ncRNAs were validated by qRT-PCR and Northern blots. Results point out the presence of a group of melanoma specific ncRNAs (i.e. SEQ ID NO 28-89).

Substance	ncRNA array expression, patient 2	ncRNA array expression, patient 3	ncRNA array expression, patient 4	ncRNA array expression, patient 5	ncRNA array expression, patient 6	ncRNA array expression, patient 7	ncRNA array expression, patient 8	ncRNA array expression, patient 9	ncRNA array expression, patient 10	ncRNA array expression, patient 19	ncRNA array expression, patient 20	ncRNA array expression, patient 21	ncRNA array expression, patient 22	ncRNA array expression, patient 23	ncRNA array expression, patient 24	ncRNA array expression, patient 25	ncRNA array expression, patient 26	ncRNA array expression, patient 27	ncRNA array expression, patient 28	ncRNA array expression, patient 29	further results
SEQ ID NO 77 (AAGTTTCCACGGCAGGTTCTCGTAGCACCTTTGGTCAAGAACTGAAGGGGCCTTTAGATG; listed as DNA, chemistry not given here; listed as Homo sapiens)	−2.141	−1.9159	−2.042	−1.549	−0.8383	−1.639	−1.644	−2.053	−2.146	−0.2581	−1.526	−1.23	−0.5892	0.23	−1.578	−2.219	−2.157	−1.387	−1.165	−1.796	ncRNA array expression, patient 30: 0.6447
SEQ ID NO 47 (GTATTTGTAATATTTGATTTGCTTTTAGCAGAGAAAACAATAAAAGAATCCAGGAAAAGT; listed as DNA, chemistry not given here; listed as Homo sapiens)	−2.442	−2.494	−2.265	−2.234	−2.076	−2.368	−1.927	−2.484	−1.685	−2.485	−2.495	−2.249	−2.41	−2.401	−2.489	−2.453	−2.486	−2.489	−2.481	−2.234	ncRNA array expression, patient 30: −1.529
SEQ ID NO 64 (TTGCCTAGGAACAAAGAAGGCTTGTGAGGAGATCAAGGAACTTACATGAAATTGTAGGAA; listed as DNA, chemistry not given here; listed as Homo sapiens)	2.496	1.673	4.824	1.546	1.8	1.389	2.2638	1.339	2.481	0.2184	2.311	2.601	1.302	0.9911	2.424	2.502	2.729	2.69	2.932	1.473	ncRNA array expression, patient 30: −2.097
SEQ ID NO 82 (GAAGTCAGAAACTAAAGTTCCCTTCTAAGACAAAATCCTGCTTTGGAGAAAAAAAAAAAT; listed as DNA, chemistry not given here; listed as Homo sapiens)	−3.153	−2.943	−3.11	−2.733	−1.179	−3.133	−2.955	−3.056	−3.4499	−3.347	−3.111	−3.1409	−2.791	−3.009	−3.02	−3.428	−3.448	−3.18	−3.348	−3.301	ncRNA array expression, patient 30: −2.485
SEQ ID NO 28 (CTTAATGTATCTAAGGTTGGCTTAATCCTGTCTAAAATCAAGGTATTGGACTAGAACAAT; DNA, backbone and methylation of C not given here; listed as Homo sapiens)	2.064	2.037	2.709	1.822	−0.1399	2.032	1.588	0.7923	−0.2665	0.5486	1.334	0.4728	1.388	2.286	0.3368	2.417	3.091	2.371	3.316	3.278	ncRNA array expression, patient 30: −1.35
SEQ ID NO 68 (CAAAAAGAAATCTTGTTTACTTGTAAAAATATAGACTACCTCCTACTTGCCACCGTTAAG; listed as DNA, chemistry not given here; listed as Homo sapiens)	−1.029	−0.899	−1.233	−1.828	−0.6441	−2.078	−0.8097	−1.121	−1.445	−0.5985	−1.379	−1.385	−0.8953	−0.7105	−1.38	−1.607	−1.329	−1.5151	−1.556	−1.309	ncRNA array expression, patient 30: −0.1058
